Reference: PMC3898987 (Bioorganic & Medicinal Chemistry, 2013)
Positions count from the first letter of the chain named.

Columns and labels:
[1] = biological target: T1, 5-HT3A receptor Y73S (Homo sapiens, UniProt P46098, Y68S); assay: FlexStation membrane potential dye functional assay, HEK293 cells; type: cell-based; parameters: expressed in transfected cells; host or cells: HEK293; conditions: 5-HT3A Y73S
T1 sequence (P46098 24-478 Y68S): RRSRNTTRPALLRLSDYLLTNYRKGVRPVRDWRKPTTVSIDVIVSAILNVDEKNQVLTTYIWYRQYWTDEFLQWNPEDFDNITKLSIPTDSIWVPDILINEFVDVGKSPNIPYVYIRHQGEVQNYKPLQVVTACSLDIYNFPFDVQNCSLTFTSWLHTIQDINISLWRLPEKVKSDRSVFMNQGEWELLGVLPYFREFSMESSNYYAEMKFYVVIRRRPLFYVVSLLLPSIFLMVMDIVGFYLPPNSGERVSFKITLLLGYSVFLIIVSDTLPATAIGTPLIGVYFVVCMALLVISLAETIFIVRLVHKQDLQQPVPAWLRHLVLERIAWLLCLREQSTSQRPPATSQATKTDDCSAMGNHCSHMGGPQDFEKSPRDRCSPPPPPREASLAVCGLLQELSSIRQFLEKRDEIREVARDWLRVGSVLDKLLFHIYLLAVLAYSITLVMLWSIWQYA
Method: (§1) Human embryonic kidney (HEK) 293 cells were cultured on 90 mm tissue culture plates at 37 °C and 7% CO2 in a humidified atmosphere. They were grown in DMEM:F12 (Dulbecco’s Modified Eagle’s Medium/Nutrient Mix F12 (1:1)) with GlutaMAX I™ containing 10% fetal calf serum and passaged when confluent. […] For FlexStation assays, transfected cells were plated on 96-well plates and incubated 1–2 days before assay.
(§2) Fluorometric studies were undertaken using a FlexStation® (Molecular Devices, Sunnyvale, CA, USA) as previously described.[11]
(§3) Fluorescence was measured every 2 s for 200 s. […] Concentration–response and inhibition curves were obtained for each mutant, and the fluorescence values were normalized to the maximal response.

[2] = biological target: T2, 5-HT3A receptor S163A (Homo sapiens, UniProt P46098, S158A); assay: as above; type: cell-based; parameters: expressed in transfected cells; host or cells: HEK293; conditions: 5-HT3A S163A
T2 sequence (P46098 24-478 S158A): T1 sequence (P46098 24-478 Y68S) with S45Y, S135A
Method: as §1, §2, §3

[3] = biological target: T3, WT 5-HT3A receptor (Homo sapiens, UniProt P46098); assay: radioligand saturation binding, transfected HEK293 membranes; conditions: [3H]-palonosetron saturation, 4 °C, 24 h
T3 sequence (P46098 24-478): T1 sequence (P46098 24-478 Y68S) with S45Y
Method: (§4) Human embryonic kidney (HEK) 293 cells were cultured on 90 mm tissue culture plates at 37 °C and 7% CO2 in a humidified atmosphere. They were grown in DMEM:F12 (Dulbecco’s Modified Eagle’s Medium/Nutrient Mix F12 (1:1)) with GlutaMAX I™ containing 10% fetal calf serum and passaged when confluent. For radioligand binding studies, cells in 90 mm dishes were transfected at 60–70% confluency using polyethyleneimine and incubated for 3–4 days before use. For FlexStation assays, transfected cells were plated on 96-well plates and incubated 1–2 days before assay. […]
(§5) Eight-point binding assays were performed to produce saturation binding curves. […] Radioactive counts were measured using a Beckman LS6000SC liquid scintillation counter (Fullerton, California, USA).
(§6) Data were analyzed by iterative curve fitting using GraphPad Prism v5 (San Diego, CA) according to the following equation: B=Bmax[L]^n/kdn+[L]^n where B is the amount of bound radioligand, Bmax is the maximum specific binding at equilibrium, [L] is the concentration of radioligand, Kd is the equilibrium dissociation constant of the radioligand, and n is the Hill coefficient.

[4] = biological target: T4, 5-HT3A receptor D165A (Homo sapiens, UniProt P46098, D160A); assay: cell-based
T4 sequence (P46098 24-478 D160A): T1 sequence (P46098 24-478 Y68S) with S45Y, D137A

[5] = biological target: T2, 5-HT3A receptor S163A; assay: radioligand saturation binding, transfected HEK293 membranes; conditions: [3H]-palonosetron saturation, 5-HT3A S163A, 4 °C, 24 h
Method: as §4, §5, §6

[6] = biological target: T5, 5-HT3AB receptor, 5-HT3B subunit F130A (Homo sapiens, UniProt O95264+P46098, F123A); assay: cell-based
T5 sequence (P46098 24-478): T1 sequence (P46098 24-478 Y68S) with S45Y
T5 sequence (O95264 22-441 F123A): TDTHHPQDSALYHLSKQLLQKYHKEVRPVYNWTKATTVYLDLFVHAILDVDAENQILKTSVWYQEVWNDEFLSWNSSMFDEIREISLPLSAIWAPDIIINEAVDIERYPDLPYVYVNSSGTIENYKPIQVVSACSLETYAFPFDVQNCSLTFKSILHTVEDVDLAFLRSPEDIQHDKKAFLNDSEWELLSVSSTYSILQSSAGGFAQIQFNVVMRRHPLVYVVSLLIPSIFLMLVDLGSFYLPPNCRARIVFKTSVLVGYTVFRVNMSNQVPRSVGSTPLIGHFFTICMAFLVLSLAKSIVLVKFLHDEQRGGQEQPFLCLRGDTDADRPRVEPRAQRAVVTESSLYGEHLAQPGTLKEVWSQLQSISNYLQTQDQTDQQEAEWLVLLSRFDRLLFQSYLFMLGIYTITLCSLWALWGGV
Method: as §1, §2, §3

[7] = inhibition of 5-HT (EC50 concentration) response, 45 min preincubation

SMILES | Hill Coefficient ([1]; 5-HT concentration-response) | Hill Coefficient ([2]; 5-HT concentration-response) | IC50 [1, 7] [nM] | Kd [3] [nM] | IC50 [4] [nM] | Kd [5] [nM] | IC50 [2, 7] [nM] | IC50 [6] [nM]
NCCc1c[nH]c2ccc(O)cc12 [5-HT, serotonin] | 2.0 ± 0.3 | 3.8 ± 0.4 |  |  |  |  |  | 
O=C1c2cccc3c2[C@H](CCC3)CN1[C@@H]1CN2CCC1CC2 [Palonosetron] |  |  | 3.64 ± 1.1 | 0.32 ± 0.07 | 1.33 ± 0.45 | 0.3 ± 0.08 | 1.57 ± 0.12 | 0.84 ± 0.11
